The numbers were not newly measured in patent publication US20260108469A1, “COMPOSITIONS COMPRISING WATER INSOLUBLE DRUGS AND METHODS OF PRODUCING AND USING SAME” (priority 2023, published 2026), which cites them from elsewhere.

Consider `CCc1c2c(nc3ccc(O)cc13)-c1cc3c(c(=O)n1C2)COC(=O)[C@]3(O)CC` [SN-38, 7-ethyl-10-hydroxycamptothecin], for which the “solubility in water-based solutions” value is “not soluble in water-based solutions”. In the case of “CVKRGLKLRHVRPRVTRMDV (cell penetrating peptide (CPP)) [20 amino acid cell penetrating peptide, DPV1047 with an added N-terminal Cys]”, the solubility in water (water) is listed as above 500 mg/mL.
